# Test results published in US20240398737A1, “FUNCTIONALIZED LONG-CHAIN HYDROCARBON MONO- AND DI-CARBOXYLIC ACIDS AND DERIVATIVES THEREOF, AND THEIR USE FOR THE PREVENTION OR TREATMENT OF DISEASE” (Espervita Therapeutics, Inc., priority 2021, published 2024).
# Entries after “also recorded” stand apart in the source; their conditions may differ.
# Legend:
# [1] = biological target: LIMK1 (Homo sapiens (Human), UniProt P53667); test: Wild type kinase screen: LIMK1; assay type: biochemical; conditions: compound at 10 μM, 10 μM ATP, Data 1 and Data 2 duplicates
# LIMK1, sequence (P53667 whole entry, species assumed): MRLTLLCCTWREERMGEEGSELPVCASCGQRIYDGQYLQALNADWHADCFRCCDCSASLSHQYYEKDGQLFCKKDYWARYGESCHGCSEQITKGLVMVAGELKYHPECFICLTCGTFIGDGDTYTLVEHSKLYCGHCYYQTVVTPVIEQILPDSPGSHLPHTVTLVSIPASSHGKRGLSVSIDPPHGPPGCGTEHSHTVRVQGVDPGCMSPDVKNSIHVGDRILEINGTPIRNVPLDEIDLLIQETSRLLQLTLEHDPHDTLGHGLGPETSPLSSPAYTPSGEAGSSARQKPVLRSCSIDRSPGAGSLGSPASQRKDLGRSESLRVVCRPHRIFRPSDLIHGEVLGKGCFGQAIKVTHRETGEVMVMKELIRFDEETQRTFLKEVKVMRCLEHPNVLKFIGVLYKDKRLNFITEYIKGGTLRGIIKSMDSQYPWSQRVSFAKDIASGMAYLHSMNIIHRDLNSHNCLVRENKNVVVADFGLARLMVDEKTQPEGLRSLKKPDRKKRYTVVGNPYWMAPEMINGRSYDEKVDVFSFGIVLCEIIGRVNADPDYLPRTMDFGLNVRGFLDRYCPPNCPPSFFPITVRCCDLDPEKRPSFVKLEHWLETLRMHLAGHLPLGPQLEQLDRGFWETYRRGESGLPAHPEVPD
# [2] = biological target: MELK (Homo sapiens (Human), UniProt Q14680); test: Wild type kinase screen: MELK; assay type: biochemical; conditions: compound at 10 μM, 10 μM ATP, Data 1 and Data 2 duplicates
# MELK, sequence (Q14680 whole entry, species assumed): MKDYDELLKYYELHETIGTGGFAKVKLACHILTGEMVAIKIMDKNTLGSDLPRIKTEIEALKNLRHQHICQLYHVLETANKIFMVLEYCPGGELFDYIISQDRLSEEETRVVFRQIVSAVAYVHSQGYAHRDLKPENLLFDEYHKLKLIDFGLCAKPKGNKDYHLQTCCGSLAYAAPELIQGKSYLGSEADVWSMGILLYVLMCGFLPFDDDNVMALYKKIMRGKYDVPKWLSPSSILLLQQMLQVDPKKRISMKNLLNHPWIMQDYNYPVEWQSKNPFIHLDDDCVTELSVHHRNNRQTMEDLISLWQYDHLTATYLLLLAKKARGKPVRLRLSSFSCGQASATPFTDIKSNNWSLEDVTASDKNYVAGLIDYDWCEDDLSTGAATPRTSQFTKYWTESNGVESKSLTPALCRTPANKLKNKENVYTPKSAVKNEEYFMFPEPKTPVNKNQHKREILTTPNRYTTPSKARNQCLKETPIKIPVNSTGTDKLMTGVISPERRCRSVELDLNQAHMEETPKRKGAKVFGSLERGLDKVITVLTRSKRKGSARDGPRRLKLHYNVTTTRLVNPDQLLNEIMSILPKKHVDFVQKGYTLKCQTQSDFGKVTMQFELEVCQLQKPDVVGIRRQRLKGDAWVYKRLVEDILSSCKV
# [3] = biological target: Aurora B (Homo sapiens (Human), UniProt Q96GD4); test: Wild type kinase screen: Aurora B; assay type: biochemical; conditions: compound at 10 μM, 10 μM ATP, Data 1 and Data 2 duplicates
# Aurora B, sequence (Q96GD4 whole entry): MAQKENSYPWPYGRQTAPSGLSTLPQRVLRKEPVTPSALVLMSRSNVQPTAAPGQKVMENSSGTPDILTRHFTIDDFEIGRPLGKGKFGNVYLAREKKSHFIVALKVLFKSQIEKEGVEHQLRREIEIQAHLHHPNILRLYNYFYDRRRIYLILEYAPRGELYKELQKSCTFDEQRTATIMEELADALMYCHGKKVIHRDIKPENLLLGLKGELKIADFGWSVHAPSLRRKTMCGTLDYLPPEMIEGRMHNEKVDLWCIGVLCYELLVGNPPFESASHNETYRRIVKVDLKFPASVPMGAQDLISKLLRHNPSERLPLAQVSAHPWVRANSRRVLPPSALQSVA
# [4] = system: UUO-induced renal fibrosis; test: Murine unilateral ureter obstruction (UUO) renal fibrosis model; assay type: in vivo, mouse; conditions: 100 mg/kg oral gavage daily for 9 days after UUO, mice
# Method: Animal studies were carried out in accordance with the principles of laboratory animal care of the Canadian Council on Animal Care guidelines. Male C57BL/6 mice were obtained from Charles Rivers Laboratories. FIG. 13A summarizes the timeline for this experiment. UUO model was created as follows: male C57BL6J mice (8 weeks old from Charles River Laboratories) were anesthetized with 4% isofluorane and an anesthetic plane was maintained throughout surgery at 1.5-2% isofluorane with 1 L/min oxygen. A 0.5 cm incision was made longitudinally on the left flank. The left ureter and lower pole of the kidney was exposed, and the ureter was ligated with a 6′0 silk suture in close proximity to the renal pelvis. A sham operation control group was created by surgical exposure of the left ureter and lower pole of the kidney followed by closure of the incision. Subcutaneous fluids were given (1.5 ml 0.9% NaCl) and the incision was closed with 4′0 silk sutures followed by staples for the skin. Starting the day of model creation, the animals were given a daily dose of either vehicle alone (sham surgery and UUO control, 1.5% CMC and 0.2% Tween-20) or vehicle containing Compound I-32 or Compound I-1 (at 100 mg/kg) by oral gavage for 9 days following surgery. At the end of the treatment period mice were anesthetized prior to euthanasia by bilateral thoraco-abdominal incision. Blood was collected by cardiac puncture, followed by kidney perfusion with cold saline through left ventricular cannulation. The left kidney was removed, a sample taken and fixed in formalin for histological analysis. Trichrome staining was done on formalin-fixed sections (4 μm) following deparaffinization according to manufacturer's instructions (Sigma HT15-1KT). Images were quantified by measuring the percentage of positive area using Image J on micrographs captured at x200 magnification using the BX41 Olympus microscope. Statistical analysis was performed using GraphPad Prism 8. A one-way ANOVA was used to determine significance. A p-value of less than or equal to 0.05 was used as the criterion of significance. This route was selected because it simulates oral administration to mammalian, including human, subjects and ensures that the correct dose of compound is ingested by each animal.
# Immunohistochemistry. Formalin-fixed kidneys were embedded in paraffin, then sectioned at 4 μm. After deparaffinization, they were stained with Masson's trichrome to assess collagen content (Sigma Aldrich, catalogue no. HT15-1T), picrosirius red (PSR) to more specifically assess pathogenic collagens I and III (Polysciences, Inc., catalogue no. 24901-500), αSMA as a marker of activated, profibrotic fibroblasts (PIERCE, catalogue no. MA1-06110; 30 min steaming for antigen retrieval, antibody used at 1:5000 for 2 h at room temperature), CD3 to identify T-lymphocytes (Dako, catalogue no. A0452; 30 min steaming for antigen retrieval, antibody used at 1:500 overnight at 4° C.) and F4/80 to identify macrophages (done by the McMaster Histology Facility). Slides were counterstained with hematoxylin, dehydrated twice with 90% ethanol, cleared twice with xylene, coverslipped with mounting media, and then left to dry overnight before imaging. Masson's trichrome, αSMA, CD3 and F4/80 were imaged under transmitted light and quantified using ImageJ. The Olympus IX81 fluorescence microscope driven by Metamorph was used to image and quantify PSR staining. Images were quantified by measuring the percentage of positive area. All micrographs were captured at x20 magnification.
# [5] = biological target: NEK2 (Homo sapiens (Human), UniProt P51955); test: Wild type kinase screen: NEK2; assay type: biochemical; conditions: compound at 10 μM, 10 μM ATP, Data 1 and Data 2 duplicates
# NEK2, sequence (P51955 whole entry, species assumed): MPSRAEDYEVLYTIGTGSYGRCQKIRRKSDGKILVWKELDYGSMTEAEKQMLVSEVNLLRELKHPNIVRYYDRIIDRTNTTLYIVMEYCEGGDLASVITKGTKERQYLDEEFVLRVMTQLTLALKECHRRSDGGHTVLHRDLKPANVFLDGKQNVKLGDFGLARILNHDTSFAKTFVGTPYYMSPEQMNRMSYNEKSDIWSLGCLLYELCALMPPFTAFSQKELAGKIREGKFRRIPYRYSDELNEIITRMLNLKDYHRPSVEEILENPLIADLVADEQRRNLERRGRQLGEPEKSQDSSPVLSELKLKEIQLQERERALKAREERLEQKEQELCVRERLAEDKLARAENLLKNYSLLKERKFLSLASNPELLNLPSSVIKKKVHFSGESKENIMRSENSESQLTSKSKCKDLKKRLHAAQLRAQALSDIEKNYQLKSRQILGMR
# [6] = biological target: MLCK/MYLK (Homo sapiens (Human), UniProt Q15746); test: Wild type kinase screen: MLCK/MYLK; assay type: biochemical; conditions: compound at 10 μM, 10 μM ATP, Data 1 and Data 2 duplicates
# [7] = system: Mouse primary hepatocytes; test: 14C-acetate incorporation into total lipids in mouse primary hepatocytes; assay type: cell-based; conditions: incorporation of 14C-acetate in primary mouse hepatocyte total lipids, 4 hours, 100 μM
# Method: After perfusion, collagen digested liver cells were re-suspended in William's E media (11 mM glucose) (Gibco) supplemented with 10% fetal bovine serum (FBS) (Gibco), 2 mM L-glutamine (Gibco) and 1% Antibiotic-Antimycotic (Gibco) mixture and seeded in white opaque 96-well plates. On the following day, the cells were serum-starved for 2 hours, then treated with 0 μM, 0.1 μM, 0.3 μM, 0.5 μM, 1 μM, 3 μM, 10 μM, and 100 μM of Compound I-32, Compound I-1, Compound III-1 or Reference Compound (e.g., any of Compounds A-E or bempedoic acid) in the presence of ^14C-Acetate (1 μCi/ml, PerkinElmer). Each of Compound I-32, Compound I-1, Compound III-1, and Reference Compound was solubilized in 100% DMSO to a final concentration of 100 mM stock solution. In the experimental condition, the stock solution was diluted in serum free media (William's E media (11 mM glucose) (Gibco), 2 mM L-glutamine (Gibco) and 1% Antibiotic-Antimycotic) to yield the desired concentration of each compound. […] After 4 hours of treatment, the plates were washed two times with PBS (×1) and 100 μL microscint fluid (Microscint 0, part #601361) was added in each well. Plates were wrapped with aluminum foil and were shaken at 250 rpm for 2 h. After 2 h of shaking, ^14C incorporation into lipid was determined by liquid scintillation counting using a TopCount NXT Microplate Scintillation and Luminescence Counter (Perkin Elmer).
# The effects of Compound I-32, Compound I-1, and Compound III-1 on mouse primary hepatocyte lipogenesis are represented in Table 13. Each Compound was assayed at a concentration of 0 μM (vehicle control), 0.1 μM, 0.3 μM, 0.5 μM, 1 μM, 3 μM, 10 μM, and 100 μM, unless otherwise noted. Statistically significant inhibition was determined by one-way ANOVA and Dennett's post hoc test where appropriate. […] IC50 values were determined by nonlinear regression. All statistical analyses were carried out using GraphPad Prism 8 software. A p-value of less than or equal 0.05 was considered significant.
SMILES,% Enzyme Activity (relative to DMSO controls) [1],% Enzyme Activity (relative to DMSO controls) [2],% Enzyme Activity (relative to DMSO controls) [3],Markers of fibrosis / UUO-induced renal fibrosis [4],Renal T-lymphocyte infiltration (CD3 stain) [4],Renal macrophage infiltration (F4/80 stain) [4],Trichrome staining (kidney fibrosis) [4],αSMA staining (kidney fibrosis) [4],% Enzyme Activity (relative to DMSO controls) [5],% Enzyme Activity (relative to DMSO controls) [6],% change from control at 100 μM ± SEM(n) [7]
"CC(C)(CCCCc1ccc(CCCCC(C)(C)C(=O)O)cc1)C(=O)O [Compound I-1, 6-[4-(5-carboxy-5-methylhexyl)-phenyl]-2,2-dimethylhexanoic acid]",71.9%,106.55%,63.21%,attenuated,no effect; also recorded: unaffected,significantly reduced; also recorded: similarly effective in decreasing,decreased,decreased,85.17%,106.34%,−84 ± 1.0 (n = 6) %
"CC(C)(CCCCc1cccc(CCCCC(C)(C)C(=O)O)c1)C(=O)O [Compound I-32, 6-[3-(5-carboxy-5-methylhexyl)-phenyl]-2,2-dimethylhexanoic acid]",71.71%,110.73%,67.29%,attenuated,no effect; also recorded: unaffected,significantly reduced; also recorded: similarly effective in decreasing,trend to reduction,trend to reduction,87.7%,103.59%,−82 ± 2.8 (n = 6) %
